Experiment [1] concerns the target T1, 2,3-epoxysqualene-lanosterol cyclase (Candida albicans, UniProt Q04782).
T1 construct: there was obtained a cell-free extract (CFE) as the supernatant; endogenous in cells; host or cells: Candida albicans culture, protoplasts ruptured, cell-free extract (10000 g supernatant)
Kind of experiment: inhibition of 2,3-epoxysqualene-lanosterol cyclase from Candida albicans (cell-free extract, 14C-squalene epoxide). It is filed as biochemical.

The test system of another experiment is C. albicans H29. Kind of experiment: agar dilution method, C. albicans H29. It is filed as cell-based, Candida albicans. Background: Agar dilution tests growth on a series of plates holding different concentrations.
A further experiment has as its system C. albicans B5. In words: agar dilution method, C. albicans B5. It is filed as cell-based, Candida albicans.
The next experiment relates to C. albicans H12. In words: agar dilution method, C. albicans H12. The experiment is classed as cell-based, Candida albicans.
In a further experiment the test system is C. albicans B4. Kind of experiment: agar dilution method, C. albicans B4. The experiment is classed as cell-based, Candida albicans.
The test system of the next experiment is C. albicans 3153. In words: agar dilution method, C. albicans 3153. It is filed as cell-based, Candida albicans.
[2] abbreviates: cell-free extract, pH 6.9, 30° C., 1 hour, read-out: IC50 (converted).
[3] abbreviates: in combination with compound 14.
Setting [4] is: in combination with compound 20.

Values after ≈ are worked out from the molar mass of the structure shown. Values joined by “and” are separate entries in the source; they are usually repeats but may differ in a detail not shown here. Equal values may be shown once. Where a name gives a salt, the structure may show the parent alone. Read-outs that look alike come from different tables or passages of the source.

T1 sequence (Q04782 whole entry): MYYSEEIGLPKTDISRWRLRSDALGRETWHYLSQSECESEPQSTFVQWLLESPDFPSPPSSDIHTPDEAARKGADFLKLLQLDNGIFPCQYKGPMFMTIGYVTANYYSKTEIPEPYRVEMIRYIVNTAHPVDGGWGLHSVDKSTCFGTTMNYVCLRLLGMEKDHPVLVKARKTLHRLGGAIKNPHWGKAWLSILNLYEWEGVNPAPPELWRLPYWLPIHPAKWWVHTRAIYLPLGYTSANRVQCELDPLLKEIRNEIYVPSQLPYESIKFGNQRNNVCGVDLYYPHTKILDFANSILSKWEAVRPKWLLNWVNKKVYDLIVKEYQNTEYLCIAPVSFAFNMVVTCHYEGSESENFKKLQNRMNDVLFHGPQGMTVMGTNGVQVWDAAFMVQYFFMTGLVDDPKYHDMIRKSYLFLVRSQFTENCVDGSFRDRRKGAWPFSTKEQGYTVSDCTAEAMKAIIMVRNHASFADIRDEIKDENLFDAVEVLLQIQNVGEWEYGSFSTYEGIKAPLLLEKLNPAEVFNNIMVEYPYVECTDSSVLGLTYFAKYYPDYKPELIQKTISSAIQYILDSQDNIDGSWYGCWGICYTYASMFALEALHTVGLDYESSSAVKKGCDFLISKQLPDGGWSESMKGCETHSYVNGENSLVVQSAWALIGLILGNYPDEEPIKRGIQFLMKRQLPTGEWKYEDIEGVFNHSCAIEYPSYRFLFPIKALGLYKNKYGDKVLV

Consider `CN(C)Cc1ccc(-c2ccc(C(=O)c3ccc(I)cc3)cc2)cc1` [Compound 10, 4'-[(Dimethylamino)methyl]-4-biphenylyl p-iodophenyl ketone hydrochloride], for which the 50% inhibitory concentration (IC50) in experiment [1] (setting [2]) is 98.4 nM.
For the compound `C=CCN(C)Cc1ccc(-c2ccc(C(=O)c3ccc(C#N)cc3)cc2)cc1` [Compound 19, p-[[4'-[(Allylmethylamino)methyl]-4-biphenylyl]carbonyl]-benzonitrile hydrochloride], the midpoint of inhibition in experiment [1], the IC50, lay at 109 nM.
With `CNCc1ccc(-c2ccc(C(=O)c3ccccc3)cc2)cc1` [Compound 26, 4'-[(Methylamino)methyl]-4-biphenylyl phenyl ketone hydrochloride], in experiment [1] (setting [2]), the IC50 was 592 nM.
The same measure, in the same setting: for `CCN(C)Cc1ccc(-c2ccc(C(=O)c3ccccc3)cc2)cc1` [Compound 25, 4'-[Ethylmethylamino)methyl]-4-biphenylyl phenyl ketone hydrochloride] the value was 137 nM; for `CC(c1ccc(-c2ccc(C(=O)c3ccccc3)cc2)cc1)N(C)C` (racemic) [Compound 2, rac-4'-[1-(dimethylamino)ethyl]-4-biphenylyl phenyl ketone hydrochloride], 219 nM; for `C=CCN(C)Cc1ccc(-c2ccc(C(=O)c3ccccc3C)cc2)cc1` [Compound 33], 33.8 nM.
Consider `C=CCN(C)Cc1ccc(-c2ccc(C(=O)c3ccc(F)cc3)cc2)cc1` [Compound 15, 4'-[(Allylmethylamino)methyl]-4-biphenylyl p-fluorophenyl ketone hydrochloride], for which the IC50 in experiment [1] is 100 nM.
Take `C=CCN(C)Cc1ccc(-c2ccc(C(=O)c3ccc(Cl)cc3Cl)cc2Cl)cc1` [Compound 21]: the IC50 in experiment [1] (setting [2]) is 58.5 nM.
Turning to `CN(C)Cc1ccc(-c2ccc(C(=O)c3ccc4ccccc4c3)cc2)cc1` [Compound 13, 4'-[(Dimethylamino)methyl]-4-biphenylyl 2-naphthyl ketone hydrochloride], the half-inhibitory concentration (IC50) in experiment [1] (setting [2]) was 522 nM.
For the compound `C=CCN(C)Cc1ccc(-c2ccc(C(=O)c3ccc(F)cc3F)cc2)cc1` [Compound 31, 2,4-difluorophenyl 4'-[(allylmethylamino)methyl]-4-biphenylyl ketone], the 50% inhibitory concentration (IC50) in experiment [1] is 21.2 nM.
Consider `C=CCN(C)Cc1ccc(-c2ccc(C(=O)c3ccc(Cl)cc3Cl)cc2)cc1` [Compound 16, 2,4-dichlorophenyl 4'-(allylmethylamino)-methyl]-4-biphenylyl ketone hydrochloride], for which, in experiment [1] (setting [2]), the half-maximal inhibitory concentration (IC50) is 39 nM.
Still for that read-out and setting: for `CN(C)Cc1ccc(-c2ccc(C(=O)c3ccc(Br)cc3)cc2)cc1` [Compound 6, p-Bromophenyl 4'-[(dimethylamino)methyl]-4-biphenylyl ketone hydrochloride] the value was 102 nM; for `CN(C)C(C)(C)c1ccc(-c2ccc(C(=O)c3ccccc3)cc2)cc1` [Compound 9, 4'-[1-(dimethylamino)-1-methylethyl]-4-biphenylyl phenyl ketone hydrochloride], 2500 nM.
Same read-out and setting: with `C=CCN(C)Cc1ccc(-c2ccc(C(=O)c3ccc([N+](=O)[O-])cc3)cc2)cc1` [Compound 17] the figure was 41.4 nM; with `COc1ccccc1C(=O)c1ccc(-c2ccc(CN(C)C)cc2)cc1` [Compound 29], 550 nM.
Turning to `CN(C)Cc1ccc(-c2ccc(C(=O)c3ccc(Cl)cc3Cl)cc2)cc1` [Compound 4, 2,4-dichlorophenyl 4'-[(dimethylamino)methyl]-4-biphenyl ketone hydrochloride], the IC50 in experiment [1] (setting [2]) was 200 nM.
Regarding `C=CCN(C)Cc1ccc(-c2ccc(C(=O)c3cccc4ccccc34)cc2)cc1` [Compound 22, 4'-[(Allylmethylamino)methyl]-4-biphenylyl 1-naphthyl ketone hydrochloride], inhibition in experiment [1] was half-maximal at 434 nM (IC50).
Same read-out and setting: for `C=CCN(C)Cc1ccc(-c2ccc(C(=O)CCC=C(C)C)cc2)cc1` [Compound 39, 4'-[(allylmethylamino)methyl]-4-biphenylyl 4-methyl-3-pentenyl ketone] the value was 25.9 nM.
Turning to `CN(C)Cc1ccc(-c2ccc(C(=O)c3ccc(C#N)cc3)cc2)cc1` [Compound 11, p-[[(4'-[(Dimethylamino)methyl]-4-biphenylyl]carbonyl]-benzonitrile hydrochloride], the half-inhibitory concentration (IC50) in experiment [1] (setting [2]) was 170 nM.
`C=CCN(C)Cc1ccc(-c2ccc(C(=O)CCCCCCCCO)cc2)cc1` [Compound 40, 4'-[(allylmethylamino)methyl]-4-biphenylyl 8-hydroxyoctyl ketone fumarate] showed an IC50 in experiment [1] of 17.8 nM.
`CN(C)Cc1ccc(-c2ccc(C(=O)c3ccc([N+](=O)[O-])cc3)cc2)cc1` [Compound 5, 4'-[(Dimethylamino)methyl]-4-biphenylyl p-nitrophenyl ketone hydrochloride]: the IC50 in experiment [1] (setting [2]) was 290 nM.
The same measure, in the same setting: with `CN(C)Cc1ccc(-c2ccc(C(=O)c3ccc([N+](=O)[O-])cc3Cl)cc2)cc1` [Compound 8, 2-Chloro-4-nitrophenyl 4'-[(dimethylamino)methyl]-4-biphenyl ketone hydrochloride] the figure was 111 nM.
In the case of `CN(C)Cc1ccc(-c2ccc(C(=O)c3ccc(Br)cc3Br)cc2)cc1` [Compound 27], the IC50 in experiment [1] (setting [2]) is 50.7 nM.
Same read-out and setting: with `C=CCN(C)Cc1ccc(-c2ccc(C(=O)c3ccc(Br)cc3Br)cc2)cc1` [Compound 28] the figure was 40.1 nM; with `C=CCN(C)Cc1ccc(-c2ccc(C(=O)c3ccccc3C)cc2)cc1` [Compound 34], 50.6 nM.
With `CN(C/C=C/C#CC(C)(C)C)Cc1cccc2ccccc12` [terbinafine, reference compound], the “MIC of sterol biosynthesis inhibitor in combination” value in the experiment with C. albicans H29 (setting [3]) was 3.0 µg/mL; with C. albicans H29 (setting [4]) it was 0.75 µg/mL; in the experiment with C. albicans B5 (setting [3]), 3.0 µg/mL; in the experiment on C. albicans B5 (setting [4]), 0.7 µg/mL; in the experiment on C. albicans H12 (setting [3]), 1.5 µg/mL; with C. albicans H12 (setting [4]), 0.75 µg/mL. Besides, the “MIC of sterol biosynthesis inhibitor in combination” value was 3.0 µg/mL with C. albicans B4 (setting [3]); 1.5 µg/mL with C. albicans B4 (setting [4]); 3.0 µg/mL and 1.5 µg/mL in the experiment on C. albicans 3153 (setting [3]); 1.50 µg/mL in the experiment with C. albicans 3153 (setting [4]). The same compound came in with an MIC against C. albicans B4 (Candida albicans, B4, 48 h, alone, 37° C., 2 days) of 100 µg/mL (≈ 343 µM).
In the case of `C=CCN(C)Cc1ccc(-c2ccc(C(=O)CCCCC)cc2)cc1` [Compound 38, 4'-[(allylmethylamino)methyl]-4-biphenylyl pentyl ketone hydrochloride], the IC50 in experiment [1] is 62.6 nM.
With `CN(C)Cc1ccc(-c2ccc(C(=O)c3ccc(F)cc3F)cc2)cc1` [Compound 30], in experiment [1] (setting [2]), the IC50 is 82.5 nM.
Still for that read-out and setting: for `CN(C)Cc1ccc(-c2ccc(C(=O)CCCCCCCCO)cc2)cc1` [Compound 37, 4'-[(dimethylamino)methyl]-4-biphenylyl 8-hydroxyoctyl ketone hydrochloride] the value was 42.1 nM.
For `Cc1ccccc1C(=O)c1ccc(-c2ccc(CN(C)C)cc2)cc1` [Compound 32], the IC50 in experiment [1] (cell-free extract, pH 6.9, 30° C., 1 hour) is listed as 0/03.
As to `CN(C)Cc1ccc(-c2ccc(C(=O)c3ccccc3)cc2)cc1` [Compound 1, 4'-[(dimethylamino)methyl]-4-biphenylyl phenyl ketone hydrochloride], the half-inhibitory concentration (IC50) in experiment [1] (setting [2]) was 284 nM.
On the same count and under the same terms, for `CN(C)Cc1ccc(-c2ccc(C(=O)c3ccc(F)cc3)cc2)cc1` [Compound 3, 4'-[(Dimethylamino)methyl]-4-biphenyl p-fluorophenyl ketone hydrochloride] the value was 300 nM; for `CC(C)=CCCC(=O)c1ccc(-c2ccc(CN(C)C)cc2)cc1` [Compound 36, 4'-[(dimethylamino)methyl]-4-biphenylyl 4-methyl-3-pentenyl ketone hydrochloride], 8.38 nM.
For `C=CCN(C)Cc1ccc(-c2ccc(C(=O)c3ccc4ccccc4c3)cc2)cc1` [Compound 23, 4'-[(Allylmethylamino)methyl]-4-biphenylyl 2-naphthyl ketone hydrochloride], the IC50 in experiment [1] was 409 nM.
On the same count and under the same terms, for `C=CCN(C)C(C)c1ccc(-c2ccc(C(=O)c3ccccc3)cc2)cc1` (racemic) [Compound 18, rac-4'-[1-(Allylmethylamino)ethyl]-4-biphenylyl phenyl ketone hydrochloride] the value was 90 nM.
Regarding `C=CCN(C)Cc1ccc(-c2ccc(C(=O)c3ccc([N+](=O)[O-])cc3Cl)cc2)cc1` [Compound 24, 4'-[[(Allylmethylamino)methyl]-4-biphenylyl 2-chloro-4-nitrophenyl ketone hydrochloride], the IC50 in experiment [1] (setting [2]) is 26.1 nM.
For the compound `CN(C)Cc1ccc(-c2ccc(C(=O)c3cccc4ccccc34)cc2)cc1` [Compound 12, 4'-[(Dimethylamino)methyl]-4-biphenylyl 1-naphthyl ketone hydrochloride], in experiment [1] (setting [2]), the IC50 was 771 nM.
Still for that read-out and setting: for `CN(C)Cc1ccc(-c2ccc(C(=O)c3ccc(Cl)cc3Cl)cc2Cl)cc1` [Compound 7] the value was 239 nM.
Still for that read-out and setting: for `CCCCCC(=O)c1ccc(-c2ccc(CN(C)C)cc2)cc1` [Compound 35, 4'-[(dimethylamino)-methyl]-4-biphenylyl pentyl ketone hydrochloride] the value was 89.6 nM.

For orientation: IC50 means the concentration that gives 50% inhibition. One may read the MIC as the smallest concentration in the dilution series that meets the test's criterion for growth inhibition.

Source of the values: patent US5239084A, “Substituted aminoalkyl biphenyl compounds” (Hoffmann-La Roche Inc., priority 1990, dated 1993).
